Molecules are shown by their SMILES.

The target in this test is T1, Alpha-tocopherol transfer protein (Homo sapiens, UniProt P49638).
T1 sequence (P49638 whole entry): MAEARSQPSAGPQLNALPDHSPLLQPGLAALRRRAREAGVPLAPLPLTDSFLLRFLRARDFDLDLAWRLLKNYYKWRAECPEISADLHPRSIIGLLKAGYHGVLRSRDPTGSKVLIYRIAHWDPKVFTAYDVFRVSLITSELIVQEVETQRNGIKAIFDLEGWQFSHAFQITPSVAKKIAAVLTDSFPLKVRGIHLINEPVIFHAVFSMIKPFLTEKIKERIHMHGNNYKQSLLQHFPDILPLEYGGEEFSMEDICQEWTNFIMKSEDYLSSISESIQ
The test can be described thus: Binding affinity to human alpha-TTP assessed as dissociation constant incubated for 25 to 40 mins by fluorescence based assay.

Turning to `CC1=CC(C)=[N+]2C1=Cc1ccc(CCCCCCCC[C@]3(C)CCc4c(C)c(O)c(C)c(C)c4O3)n1[B-]2(F)F`, the Kd came out at 0.094 µM.

As a reminder, the Kd is the concentration at which binding is half-saturated.
